The values below come from patent US9334263B2, “Compositions useful for treating disorders related to kit” (BLUEPRINT MEDICINES CORPORATION, priority 2013, dated 2016).

One assay concerns the target T1, D816V Kit (Homo sapiens, UniProt P10721, D816V).
T1 construct: purchased Carna Bioscience 08-156
The assay is described as follows: Kit D816V assay at Km (Caliper electrophoretic mobility shift). Format: biochemical. The settings on record: 15 uM ATP, 25 C, 90 minutes. An outline of the steps: (§1)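 Read-out is the ratio of phosphorylated to unphosphorylated fluorescent peptide, resolved by mobility shift on a Caliper EZ Reader 2.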

The target in a further assay is T2, wild type Kit (Homo sapiens, UniProt P10721).
T2 construct: purchased Carna Bioscience 08-156
The assay is described as follows: Kit wild type assay at Km (Caliper electrophoretic mobility shift). In kind it is biochemical. Particulars: 400 uM ATP, 25 C, 90 minutes; read-out: WT KIT. The method, boiled down:
as §1

The target in another assay is T3, PDGFRA D842V (Homo sapiens, UniProt P16234, D842V).
T3 construct: purchased ProQinase 0761-0000-1
The assay is described as follows: PDGFRA D842V assay at Km (Caliper electrophoretic mobility shift). The settings on record: 15 uM ATP, 25 C, 90 minutes; read-out: PDFGRA D842V. Format: biochemical.

Assay [1] has as its target T4, Kit D816V (HMC1.2 cells, Kit V560G and D816V) (Homo sapiens, UniProt P10721, D816V/V560G).
T4 construct: endogenous in cells; host or cells: HMC1.2 cells
Description: HMC1.2 autophosphorylation assay (AlphaLISA, phospho-Y719 c-Kit). In kind it is cell-based. The settings on record: Kit autophosphorylation at tyrosine 719, 90 minutes, read-out: Cellular Activity. An outline of the steps:
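Serum-starved (overnight, serum-free IMDM) HMC1.2 cells were treated for 90 min with a 10-point compound series (25 uM–95.4 pM, 0.25% DMSO final). Lysates were probed with phospho-Y719 and total c-Kit antibodies (15 nM final) plus AlphaLISA acceptor and streptavidin donor beads (2 h each, RT), with AlphaScreen read-out.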
(Bead proximity is the source of the signal in Alpha formats.)

For the next assay, the system named is P815 tumor cells. Description: P815 mastocytoma xenograft model. In kind it is in vivo, mouse. The settings on record: female BALB/c nude mice, P815 s.c., p.o. BID x 10. How it is done: Compound 165 and Dasatinib were evaluated in a P815 mastocytoma xenograft model. P815 tumor cells (ATCC, Manassas, Va., cat # ATCC® TIB-64) were maintained in vitro as a suspension and monolayer culture in RPMI1640 medium supplemented with 10% fetal calf serum at 37° C. in an atmosphere of 5% CO2 in air. The tumor cells were sub-cultured twice weekly by trypsin-EDTA treatment. The cells growing in an exponential growth phase were harvested and counted for tumor inoculation.
Tumor sizes were measured every other day in two dimensions using a caliper, and the volume was expressed in mm^3 using the formula: V=0.5 a×b^2 where a and b were the long and short diameters of the tumor, respectively. […] T-C was calculated with T as the median time (in days) required for the treatment group tumors to reach a predetermined size (e.g., 1000 mm^3), and C as the median time (in days) for the control group tumors to reach the same size. […]
TGI was calculated for each group using the formula: TGI (%)=[1−(Ti−T0)/(Vi−V0)]×100; Ti is the average tumor volume of a treatment group on a given day, T0 is the average tumor volume of the treatment group on the day of treatment start, Vi is the average tumor volume of the vehicle control group on the same day with Ti, and V0 is the average tumor volume of the vehicle group on the day of treatment start. Tumor weight was measured at the endpoint. […]

Entries after “also recorded” stand apart in the source; their conditions may differ.

T4 sequence (P10721 26-976 V560G/D816V): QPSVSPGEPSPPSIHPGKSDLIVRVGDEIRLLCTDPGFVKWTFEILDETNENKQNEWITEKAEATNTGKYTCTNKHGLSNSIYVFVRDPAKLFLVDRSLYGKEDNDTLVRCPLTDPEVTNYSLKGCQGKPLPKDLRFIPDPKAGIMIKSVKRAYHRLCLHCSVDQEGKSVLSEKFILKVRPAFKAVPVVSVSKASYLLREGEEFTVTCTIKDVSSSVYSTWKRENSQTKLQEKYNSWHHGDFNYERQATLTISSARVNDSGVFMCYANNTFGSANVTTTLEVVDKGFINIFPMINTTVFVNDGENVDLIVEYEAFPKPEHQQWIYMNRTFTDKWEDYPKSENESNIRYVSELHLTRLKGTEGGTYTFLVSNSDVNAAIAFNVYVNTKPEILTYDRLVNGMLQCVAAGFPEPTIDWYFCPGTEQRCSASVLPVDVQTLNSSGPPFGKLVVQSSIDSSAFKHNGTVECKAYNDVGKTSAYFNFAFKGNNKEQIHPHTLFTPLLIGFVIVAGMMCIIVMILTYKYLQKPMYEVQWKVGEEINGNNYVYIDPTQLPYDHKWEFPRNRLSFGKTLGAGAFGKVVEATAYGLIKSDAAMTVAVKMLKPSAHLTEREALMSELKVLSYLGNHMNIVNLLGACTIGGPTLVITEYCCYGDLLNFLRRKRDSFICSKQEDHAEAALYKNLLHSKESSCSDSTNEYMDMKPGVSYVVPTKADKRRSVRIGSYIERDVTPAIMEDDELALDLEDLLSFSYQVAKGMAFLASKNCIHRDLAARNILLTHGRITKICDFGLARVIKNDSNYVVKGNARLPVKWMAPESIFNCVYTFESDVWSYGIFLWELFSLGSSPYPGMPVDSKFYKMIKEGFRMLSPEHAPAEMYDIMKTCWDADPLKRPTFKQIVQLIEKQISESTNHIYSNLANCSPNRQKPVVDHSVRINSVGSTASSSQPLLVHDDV
T1 sequence (P10721 26-976 D816V): as the sequence (P10721 26-976 V560G/D816V) above, with G535V counted along it
T3 sequence (P16234 24-1089 D842V): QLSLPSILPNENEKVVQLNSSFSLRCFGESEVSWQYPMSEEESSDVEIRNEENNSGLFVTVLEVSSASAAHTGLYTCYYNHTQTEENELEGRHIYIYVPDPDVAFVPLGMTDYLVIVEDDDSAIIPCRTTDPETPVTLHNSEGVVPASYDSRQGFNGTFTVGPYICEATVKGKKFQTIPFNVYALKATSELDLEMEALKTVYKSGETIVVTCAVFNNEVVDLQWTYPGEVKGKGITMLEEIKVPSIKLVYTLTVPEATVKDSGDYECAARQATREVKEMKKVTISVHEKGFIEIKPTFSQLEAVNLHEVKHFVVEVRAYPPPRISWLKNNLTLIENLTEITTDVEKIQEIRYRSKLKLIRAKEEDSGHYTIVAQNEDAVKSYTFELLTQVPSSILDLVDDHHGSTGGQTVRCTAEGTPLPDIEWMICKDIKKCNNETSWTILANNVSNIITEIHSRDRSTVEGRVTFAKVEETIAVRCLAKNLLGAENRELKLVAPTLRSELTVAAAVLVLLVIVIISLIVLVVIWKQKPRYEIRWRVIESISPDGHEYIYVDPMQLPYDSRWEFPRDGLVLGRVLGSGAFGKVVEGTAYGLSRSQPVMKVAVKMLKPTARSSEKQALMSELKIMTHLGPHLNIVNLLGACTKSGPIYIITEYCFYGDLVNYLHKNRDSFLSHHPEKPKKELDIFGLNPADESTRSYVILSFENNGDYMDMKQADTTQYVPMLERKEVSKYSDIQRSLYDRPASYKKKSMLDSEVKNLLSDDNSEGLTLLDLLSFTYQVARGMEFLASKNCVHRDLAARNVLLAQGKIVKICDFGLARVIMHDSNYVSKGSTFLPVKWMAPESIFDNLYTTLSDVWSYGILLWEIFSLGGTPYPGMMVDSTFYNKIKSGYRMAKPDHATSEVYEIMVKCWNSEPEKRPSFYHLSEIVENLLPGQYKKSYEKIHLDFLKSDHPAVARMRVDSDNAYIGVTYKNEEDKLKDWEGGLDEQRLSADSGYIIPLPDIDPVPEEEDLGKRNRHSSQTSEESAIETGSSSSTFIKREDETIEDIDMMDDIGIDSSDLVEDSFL
T2 sequence (P10721 26-976): as the sequence (P10721 26-976 V560G/D816V) above, with G535V, V791D counted along it

With `O[C@@H]1CCCN(c2ccc(Nc3ncnc(N4CCN(c5ncc(Cc6ccccc6)cn5)CC4)n3)cc2)C1` [Compound 165], the IC50 lay within 0.00101 to 0.01 µM on D816V Kit, 0.1 to 1 µM at wild type Kit, 0.00101 to 0.01 µM on PDGFRA D842V and 0.01 to 0.1 µM in assay [1]. In addition, the “tumor growth inhibition / antitumor activity” value with P815 tumor cells was “effective in inhibiting tumor growth; also recorded: observable antitumor activity”.
